Measured values as given in patent US10882856B2 (BeiGene, Ltd., priority 2017, dated 2021).

Tests used:
TDO = biological target: T1, TDO (Homo sapiens, UniProt P48775); assay: TDO enzymatic assay; format: biochemical; conditions: read-out: Enzyme IC50 TDO
T1 construct: His tag (C); made in house; host or cells: E. coli
Outline: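 Recombinant C-terminally His-tagged TDO purified from E. coli (100 nM) was tested with 0.5 mM L-tryptophan (Km concentration). Otherwise the IDO1 enzymatic set-up was used: ascorbic acid, methylene blue, catalase, and potassium phosphate pH 7.5 with BSA, incubated 1.5 hours. N'-formylkynurenine absorbance was read continuously at 321 nm, and activity was taken as the slope. IC50 was calculated from remaining enzyme activity across increasing compound concentrations.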

IDO1 [1] = biological target: T2, IDO1 (Homo sapiens, UniProt P14902); assay: Hela cell-based IDO1 assay; conditions: Hela cells
Outline: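 HeLa cells were seeded at 8000 per well in 96-well plates in phenol red-free DMEM with 10% FBS. After 4 hours, DMSO-diluted compound dilutions were added with IFN-γ (final 100 ng/mL) and 0.4 mM L-Trp, and cells were kept 48 hours at 37 °C, 5% CO2. Supernatant was deproteinised with trichloroacetic acid, and kynurenine was measured at 480 nm after adding 2% 4-(dimethylamino)benzaldehyde. Potency came from four-parameter logistic fits in XLfit.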

[2] = biological target: T3, cellular TDO2 in HEK293-TDO2 cells (Homo sapiens, UniProt P48775); assay: 293-TDO2 cell-based assay (Kyn colorimetric); conditions: 48 hours of incubation
T3 construct: expressed in transfected cells; host or cells: HEK293 (ATCC), stably transfected
Outline: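 Kyn formed from L-Trp was read colorimetrically at 480 nm (TCA deproteinisation, then 2% 4-(dimethylamino)benzaldehyde). Compounds were added to 293-TDO2 cells 4 h post-seeding and left 48 h at 37° C. A four-parameter logistic model gave IC50 values.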

IDO1 [3] = biological target: T2, IDO1; assay: IDO1 enzymatic assay; format: biochemical; parameters: His tag (N); made in house; host or cells: E. coli; conditions: read-out: Enzyme IC50 IDO1
Outline: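 Assays were run in 50 mM potassium phosphate pH 7.5 with 0.1% BSA for 1.5 hours at 24 °C. Each contained 50 nM E. coli-purified, N-terminally His-tagged IDO1, compound, 1.3 mM D-tryptophan, 5 mM L-ascorbic acid, methylene blue and 0.4 mg/mL catalase. IC50 was calculated from remaining enzyme activity across a rising compound series, with activity taken as the slope of N'-formylkynurenine formation read continuously at 321 nm for 1 hour.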

T3 sequence (P48775 whole entry): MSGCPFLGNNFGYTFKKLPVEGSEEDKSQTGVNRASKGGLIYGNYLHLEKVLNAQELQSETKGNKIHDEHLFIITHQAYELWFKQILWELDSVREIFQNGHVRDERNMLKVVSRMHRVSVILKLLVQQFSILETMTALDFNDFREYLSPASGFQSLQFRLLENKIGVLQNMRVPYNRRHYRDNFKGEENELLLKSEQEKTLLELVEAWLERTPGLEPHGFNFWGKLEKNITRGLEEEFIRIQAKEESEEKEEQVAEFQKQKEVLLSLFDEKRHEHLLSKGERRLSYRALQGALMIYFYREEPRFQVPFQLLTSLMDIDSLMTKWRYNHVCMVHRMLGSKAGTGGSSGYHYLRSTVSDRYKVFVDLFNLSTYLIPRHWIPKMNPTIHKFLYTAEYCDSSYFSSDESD
T1 sequence (P48775 whole entry): as above
T2 sequence (P14902 whole entry): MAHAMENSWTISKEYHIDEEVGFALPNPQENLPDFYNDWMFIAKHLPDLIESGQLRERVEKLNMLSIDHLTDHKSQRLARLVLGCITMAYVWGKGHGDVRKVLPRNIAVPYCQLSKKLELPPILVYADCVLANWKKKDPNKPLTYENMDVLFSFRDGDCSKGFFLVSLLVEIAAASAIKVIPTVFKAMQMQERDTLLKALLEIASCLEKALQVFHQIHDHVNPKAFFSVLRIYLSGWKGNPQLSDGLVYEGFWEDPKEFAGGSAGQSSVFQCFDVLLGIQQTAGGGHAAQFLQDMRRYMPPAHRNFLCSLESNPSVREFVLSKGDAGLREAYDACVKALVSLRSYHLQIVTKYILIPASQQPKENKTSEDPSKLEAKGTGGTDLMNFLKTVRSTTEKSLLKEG

| Compound | IC50 (TDO) | EC50 (IDO1 [1]) | EC50 [2] | IC50 (IDO1 [3]) |
| --- | --- | --- | --- | --- |
| O[C@H](c1c(C2CC2)ccn2cncc12)[C@H]1CC[C@H](c2ccc(OC3CCCC3)cc2)CC1 (single isomer, unassigned) [Example C118a] | 6200 nM | 147 nM | > 10000 nM | 63 nM |
| O[C@H](c1c(C2CC2)ccn2cncc12)[C@H]1CC[C@H](c2ccc(C(F)(F)F)nc2)CC1 (single isomer, unassigned) [Example C120a] | 7400 nM | 1100 nM | > 10000 nM | 39 nM |
| O[C@H](c1c(C2CC2)ccn2cncc12)[C@H]1CC[C@H](c2cccc3ccccc32)CC1 (single isomer, unassigned) [Example C121a] | 3600 nM | 59 nM | > 10000 nM | 39 nM |
| O[C@H](c1c(C2CC2)ccc2cncn12)[C@H]1CC[C@H](c2ccccc2)CC1 (single isomer, unassigned) [Example D101a] | 9200 nM | 35 nM | > 10000 nM | 14 nM |
| COc1ccc([C@H]2CC[C@H]([C@H](O)c3c(C4CC4)ccc4cncn34)CC2)cc1 (single isomer, unassigned) [Example D102a] | 5300 nM | 29 nM | > 10000 nM | 14 nM |
| O[C@H](c1c(C2CC2)ccc2cncn12)[C@H]1CC[C@H](c2ccc(F)cc2)CC1 (single isomer, unassigned) [Example D104a] | 7500 nM | 23 nM | > 10000 nM | 18 nM |
| O[C@H](c1c(C2CC2)ccc2cncn12)[C@H]1CC[C@H](c2ccc(OC(F)(F)F)cc2)CC1 (single isomer, unassigned) [Example D105a] | 11000 nM | 631 nM | > 10000 nM | 44 nM |
| OC(c1c(C2CC2)ccc2cncn12)[C@H]1CC[C@H](c2ccc(OC3CCOCC3)cc2)CC1 (single isomer, unassigned) [Example D114c] | 5600 nM | 67 nM | > 10000 nM | 17 nM |
| O[C@H](c1c(C2CC2)ccc2cncn12)[C@H]1CC[C@H](c2cccc(Cl)c2)CC1 (single isomer, unassigned) [Example D116a] | 9400 nM | 43 nM | > 10000 nM | 15 nM |
| OC(c1c(C2CC2)ccc2cncn12)[C@H]1CC[C@H](c2ccc3ccsc3c2)CC1 (single isomer, unassigned) [Example D134a] | 6100 nM | 135 nM | > 10000 nM | 15 nM |
| O[C@H](c1c(C2CC2)ccc2cncn12)[C@H]1CC[C@H](c2cccc3ccccc32)CC1 (single isomer, unassigned) [Example D135a] | 11000 nM | 32 nM | > 10000 nM | 25 nM |
| O[C@H](c1c(C2CC2)ccc2cncn12)[C@H]1CC[C@H](c2ccc3ccccc3c2)CC1 (single isomer, unassigned) [Example D136a] | 16000 nM | 254 nM | > 10000 nM | 21 nM |
| O[C@H](c1c(C2CC2)ccc2cncn12)[C@H]1CC[C@H](c2ccnc3ccccc32)CC1 (single isomer, unassigned) [Example D140a] | 11000 nM | 38 nM | > 10000 nM | 20 nM |
| O[C@H](c1c(C2CC2)ccc2cncn12)[C@H]1CC[C@H](c2ccc(F)c(F)c2F)CC1 (single isomer, unassigned) [Example D145a] | 13000 nM | 277 nM | > 10000 nM | 19 nM |
| O[C@H](c1cc(Cl)cc2cncn12)[C@H]1CC[C@H](c2ccc(Cl)cc2)CC1 (single isomer, unassigned) [Example E101a] | 1700 nM | 2530 nM | > 10000 nM | 27 nM |
| O[C@H](c1cc(Cl)cc2cncn12)[C@H]1CC[C@H](c2cccc3ccccc32)CC1 (single isomer, unassigned) [Example E103a] | 1400 nM | 777 nM | > 10000 nM | 17 nM |
| COc1ccc([C@H]2CC[C@H]([C@H](O)c3c(C4CC4)ccn4cncc34)CC2)cc1 [Example C101a, (S)-(7-cyclopropylimidazo[1,5-a]pyridin-8-yl)(4-(4-methoxyphenyl)cyclohexyl)methanol] | 4200 nM | 110 nM | > 10000 nM | 17 nM |
| CC(=O)c1ccc([C@H]2CC[C@H]([C@H](O)c3c(C4CC4)ccn4cncc34)CC2)cc1 [Example C125, 1-(4-((1 S,4r)-4-((S)-(7-cyclopropylimidazo[1,5-a]pyridin-8-yl)(hydroxy)methyl)cyclohexyl)phenyl)ethan-1-one] | 6100 nM | 915 nM | > 10000 nM | 41 nM |
| Cn1cc(-c2ccc(N3CCC(C(O)c4c(C5CC5)ccn5cncc45)CC3)cc2)cn1 (stereo not shown) [Example C152, (7-cyclopropylimidazo[1,5-a]pyridin-8-yl)(1-(4-(1-methyl-1H-pyrazol-4-yl)phenyl)piperidin-4-yl)methanol] | 3300 nM | 520 nM | > 10000 nM | 29 nM |
| OCCn1cc(-c2ccc(N3CCC(C(O)c4c(C5CC5)ccn5cncc45)CC3)cc2)cn1 (stereo not shown) [Example C153, 2-(4-(4-(4-((7-cyclopropylimidazo[1,5-a]pyridin-8-yl)(hydroxy)methyl)piperidin-1-yl)phenyl)-1H-pyrazol-1-yl)ethan-1-ol] | 6700 nM | 1050 nM | > 10000 nM | 47 nM |

Results, then the molecule that gave them:

| IC50 (TDO) | EC50 (IDO1 [1]) | EC50 [2] | IC50 (IDO1 [3]) | Compound |
| --- | --- | --- | --- | --- |
| 4000 nM | 21 nM | > 10000 nM | 11 nM | Oc1ccc([C@H]2CC[C@H](C(O)c3c(C4CC4)ccc4cncn34)CC2)cc1 (single isomer, unassigned) [Example D106a] |
| 6400 nM | 186 nM | > 10000 nM | 16 nM | N#Cc1ccc([C@H]2CC[C@H]([C@H](O)c3c(C4CC4)ccc4cncn34)CC2)cc1 (single isomer, unassigned) [Example D110a] |
| 10000 nM | 83 nM | > 10000 nM | 34 nM | CC(C)c1ccc2cncn2c1[C@@H](O)[C@H]1CC[C@H](c2ccc(Cl)cc2)CC1 (single isomer, unassigned) [Example D115a] |
| 7700 nM | 306 nM | > 10000 nM | 25 nM | O[C@H](c1c(C2CC2)ccc2cncn12)[C@H]1CC[C@H](c2ccc(Br)cc2)CC1 (single isomer, unassigned) [Example D118a] |
| 5100 nM | 344 nM | > 10000 nM | 34 nM | O[C@H](c1c(C2CC2)ccc2cncn12)[C@H]1CC[C@H](c2ccc(-c3ccccc3)cc2)CC1 (single isomer, unassigned) [Example D119a] |
| 6700 nM | 370 nM | > 10000 nM | 80 nM | O[C@H](c1c(C2CC2)ccc2cncn12)[C@H]1CC[C@H](c2ccc(Oc3ccccc3)cc2)CC1 (single isomer, unassigned) [Example D120a] |
| 6700 nM | 220 nM | > 10000 nM | 21 nM | O[C@H](c1c(C2CC2)ccc2cncn12)[C@H]1CC[C@H](c2ccc3sccc3c2)CC1 (single isomer, unassigned) [Example D133a] |
| 7400 nM | 36 nM | > 10000 nM | 19 nM | O[C@H](c1c(C2CC2)ccc2cncn12)[C@H]1CC[C@H](c2ccc(F)c3ccccc32)CC1 (single isomer, unassigned) [Example D137a] |
| 6100 nM | 12 nM | > 10000 nM | 15 nM | O[C@H](c1c(C2CC2)ccc2cncn12)[C@H]1CC[C@H](c2cccc3ncccc32)CC1 (single isomer, unassigned) [Example D141a] |
| 12000 nM | 31 nM | > 10000 nM | 20 nM | O[C@H](c1c(C2CC2)ccc2cncn12)[C@H]1CC[C@H](c2cccc(F)c2)CC1 (single isomer, unassigned) [Example D156a] |
| 1400 nM | > 10000 nM | > 10000 nM | 3500 nM | O[C@@H](c1cc(Cl)cc2cncn12)[C@H]1CC[C@H](c2ccc3ccccc3c2)CC1 (single isomer, unassigned) [Example E104b] |
